This is an account of results in patent EP1397353B1, “2-(2,6-DISUBSTITUTED PHENYL)-4-ARYL-5-ALKYL-1,3-OXAZOLINE COMPOUNDS USEFUL AS INSECTICIDES AND ACARICIDES” (Dow AgroSciences LLC, priority 2001, dated 2003).

Where only a bound is given, the exact number is not on record here.

Format in all cases: in vivo
Test [1] deals with cabbage looper (Trichoplusia ni). Nature of the test: Insecticidal test for cabbage looper (leaf-dip, cabbage leaf discs). The note with it: dipped cabbage leaf discs, 2nd instar larvae, 5 days, rating of % Control; for pest or weed control at 400 ppm: Trichoplusia ni, foliar, 120 h, read-out: CL, activity at 400 ppm against cabbage looper. The procedure: (§1) Insecticidal test for tobacco budworm (Heliothis virescens), beet armyworm (Spodoptera exigua), and cabbage looper (Trichoplusia ni).
(§2) To prepare test solution, the test compound was formulated at 400 ppm in 7.5 mL of 2 acetone: 1 tap water. 250 µL of the test solution was pipetted upon the surface of 8 mL of lepidopteran diet (modified Shorey) contained in each of five one-ounce plastic cups (one cup = 1 replication). […] After airdrying, the treated leaf discs were placed individually into one-ounce plastic cups. Each dried, treated cotton cotyledon disc was infested with a 2nd instar tobacco budworm larva, and each cabbage leaf disc was infested with a 2nd instar cabbage looper larva. Cups containing the treated substrates and larvae were capped and then held in a growth chamber at 25 °C, 50-55% RH, and 14 hr light: 10 hr dark for 5 days.

In test [2] the test system is tobacco budworm (Heliothis virescens). Nature of the test: Insecticidal test for tobacco budworm (leaf-dip, cotton cotyledon discs). The note with it: dipped cotton cotyledon discs, 2nd instar larvae, 5 days, rating of % Control; for pest or weed control at 400 ppm: Heliothis virescens, 120 h, read-out: TBW, activity at 400 ppm against tobacco budworm. As to the method:
as §1, §2

Test [3] concerns beet armyworm (Spodoptera exigua). As to the kind of experiment: Insecticidal test for beet armyworm (treated lepidopteran diet). Conditions: Spodoptera exigua, 120 h, 2nd instar larvae, 5 days, rating of % Control, read-out: BAW, activity at 400 ppm against beet armyworm. The procedure:
as §1, §2

`Cc1ccc(-c2ccc([C@@H]3N=C(c4c(F)cccc4F)O[C@@H]3C)cc2)cc1` (mixture of isomers) [Compound 9, (4S,5R)- and (4R,5S)-2-(2,6-difluorophenyl)-5-methyl-4-(4'-methyl-1,1'-biphenyl-4-yl)-4,5-dihydro-1,3-oxazole]: the pest or weed control at 400 ppm in test [1] was 90 to 100%; in test [2], less than 50%; in test [3] it was 90 to 100%.

On to `C[C@H]1OC(c2c(F)cccc2F)=N[C@H]1c1ccc(-c2ccc(Cl)cc2)cc1` (mixture of isomers) [Compound 10, (4S,5R)- and (4R,5S)-4-(4'-chloro-1,1'-biphenyl-4-yl)-2-(2,6-difluorophenyl)-5-methyl-4,5-dihydro-1,3-oxazole], for which the pest or weed control at 400 ppm in test [1], in test [2] and in test [3] was 90 to 100% in each case.

In the case of `C[C@H]1OC(c2c(F)cccc2F)=N[C@H]1c1ccc(-c2cccc(C(F)(F)F)c2)cc1` (mixture of isomers) [Compound 11, (4S,5R)- and (4R,5S)-2-(2,6-difluorophenyl)-5-methyl-4-[3'-(trifluoromethyl)-1,1'-biphenyl-4-yl]-4,5-dihydro-1,3-oxazole], the values for the pest or weed control at 400 ppm in test [1], in test [2] and in test [3] were 90 to 100%, 80 to 89% and 90 to 100%, respectively.

`C[C@@H]1OC(c2c(F)cccc2F)=N[C@@H]1c1ccc(-c2ccc3c(c2)OC(F)(F)O3)cc1` (mixture of isomers) [Compound 13, (4R,5S)- and (4S,5R)-4-[4-(2,2-difluoro-1,3-benzodioxol-5-yl)phenyl]-2-(2,6-difluorophenyl)-5-methyl-4,5-dihydro-1,3-oxazole]: the pest or weed control at 400 ppm in test [1] was 90 to 100%; in test [2] it was less than 50%.

As to `C[C@@H]1OC(c2c(F)cccc2F)=N[C@@H]1c1ccc(-c2ccc(C(F)(F)F)cc2F)cc1` (mixture of isomers) [Compound 16, (4R,5S)- and (4S,5R)-2-(2,6-difluorophenyl)-4-[2'-fluoro-4'-(trifluoromethyl)-1,1'-biphenyl-4-yl]-5-methyl-4,5-dihydro-1,3-oxazole], the pest or weed control at 400 ppm in test [1], in test [2] and in test [3] was 90 to 100% throughout.

Take `C[C@@H]1OC(c2c(F)cccc2F)=N[C@H]1c1ccc(-c2ccc3c(c2)OC(F)(F)O3)cc1` (mixture of isomers) [Compound 34, (4S,5S)- and (4R,5R)-4-[4-(2,2-difluoro-1,3-benzodioxol-5-yl)phenyl]-2-(2,6-difluorophenyl)-5-methyl-4,5-dihydro-1,3-oxazole]: the pest or weed control at 400 ppm in test [1] was 90 to 100%; in test [2], less than 50%.

`Cc1cc(Br)ccc1[C@@H]1N=C(c2c(F)cccc2F)O[C@H]1C` (mixture of isomers) [Compound 42, (4S,5S)- and (4R,5R)-4-(4-bromo-2-methylphenyl)-2-(2,6-difluorophenyl)-5-methyl-4,5dihydro-1,3-oxazole]: the pest or weed control at 400 ppm in test [2] was less than 50%.

In the case of `C[C@@H]1OC(c2c(F)cccc2F)=N[C@@H]1c1ccc(-c2ccccc2F)cc1` (racemic) [Compound 15, (4R,5S)- and (4S,5R)-2-(2,6-difluorophenyl)-4-2'-fluoro-1,1'-biphenyl-4-yl)-5-methyl-4,5-dihydro-1,3-oxazole], the “CL, activity at 400 ppm against cabbage looper” value in test [1] is given as “A (90-100)”.

Consider “(4R,5R)- and (4S,5S)-4-phenyl-2-(2,6-difluorophenyl)-5-methyl-4,5-dihydro-1,3-oxazole [Compound 35]”, for which the “CL, activity at 400 ppm against cabbage looper” value in test [1] is “F (less than 50)”. Besides, the “TBW, activity at 400 ppm against tobacco budworm” value in test [2] was “F (less than 50)”.
